The results in this text go back to PubChem BioAssay (NCI).

Holding throughout (assay): growth of human tumour cells (NCI), 48 h
The test system of test [1] is OVCAR-4 ovarian.
In test [2] the test system is DU-145 prostate.
The subject of test [3] is 786-0 renal.
Test [4] relates to T-47D breast.
For test [5], the system named is NCI/ADR-RES ovarian.
The subject of test [6] is CAKI-1 renal.
Test [7] concerns NCI-H460 lung.
Test [8] concerns OVCAR-5 ovarian.
The subject of test [9] is MDA-MB-231 breast.
Test [10] deals with SF-539 CNS.
The test system of test [11] is CCRF-CEM leukemia.
Test [12] deals with SR leukemia.
The test system of test [13] is OVCAR-3 ovarian.
In test [14] the test system is IGROV1 ovarian.
Test [15] deals with MDA-MB-435.
The test system of test [16] is TK-10 renal.
Test [17] has as its system SW-620 colon.
Test [18] concerns NCI-H23 lung.
In test [19] the test system is NCI-H522 lung.

The structures appear in SMILES notation.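 Step 1: Grow cells in 96-well plates. Step 2: Expose to compound for 48 hours at 5 concentrations. Step 3: Interpolate endpoints linearly; if unreached, use highest concentration. TGI: concentration producing complete growth inhibition.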

As to `C=CCCC1(CC(Sc2ccccc2)P(=O)(c2ccccc2)c2ccccc2)OCCO1` (configuration not stated), the TGI in test [1], in [2], in [3], in [4], in [5] and in [6] was > 10 µM in each case. Besides, the TGI in [7], in test [8], in test [9], in [10], in test [11] and in test [12] was > 10 µM in each case. The TGI in [13], in [14], in [15], in test [16], in [17] and in [18] was > 10 µM each time.
With `CCOC(C)O[C@H]1C(=O)OCC1(C)C` (some centres not stated), the TGI in [1], in test [2], in test [3], in test [4], in [5] and in test [6] was > 100 µM each time. Further, the TGI in test [7], in test [8], in test [9], in test [10], in test [11] and in [12] was > 100 µM in each case. Besides, the TGI in test [13], in test [14], in test [15], in test [16], in test [17] and in [18] was > 100 µM in each case.
`CC1S/C(=N\N=C2/C(=O)Nc3ccc(Br)cc32)N(C2CCCCC2)C1=O` (configuration not stated): the TGI was 4.89 µM in [1]; 17.6 µM in test [2]; 6.01 µM in test [3]; 19.6 µM in test [4]; 15.6 µM in test [5]; 6.39 µM in test [6]. For the same molecule, the TGI in test [7] was 18.8 µM; in test [8] it was > 100 µM; in test [9], 6.76 µM; in test [10], 16.3 µM; in test [11] it was > 100 µM; in test [12], 39.4 µM. Also, the TGI was found to be 10 µM in test [13]; 23.1 µM in test [15]; 6.58 µM in [16]; 46.3 µM in test [17]; 15.6 µM in [18].
Turning to `Nc1nc(-[n+]2ccc(-c3ccncc3)cc2)nc(Cl)c1Cl`, the TGI is > 100 µM in test [1]; > 100 µM in test [2]; 57.9 µM in [3]; 45.9 µM in test [4]; > 100 µM in test [5]; > 100 µM in test [7]. The TGI in test [8] is > 100 µM; in [9], 95.9 µM; in test [10] it was 68.1 µM; in test [11], 31.8 µM; in [12], 41 µM; in [13], 33.5 µM. The TGI in test [14] is 33.3 µM; in test [15], > 100 µM; in test [16], 59 µM; in test [17] it was > 100 µM; in test [18], 54.9 µM.
On to `CCOc1ncn(-c2ccc(NC(=S)NC3OC(CO)C(O)C(O)C3O)cc2)n1` (configuration not stated), for which the TGI in test [1], in test [2], in [3], in test [4], in test [7] and in test [19] was > 100 µM in each case. For the same molecule, the TGI in [8], in test [9], in test [10], in test [11], in test [12] and in test [13] was > 100 µM throughout. Moreover, the TGI in test [14], in test [15], in test [16], in test [17] and in test [18] was > 100 µM in each case.
With `CSc1nnc(SC)nn1`, the TGI in [1] was 32.5 µM; in test [2], 45.4 µM; in test [3], 27.1 µM; in test [4], > 100 µM; in [5], 31.9 µM; in [6], 31.4 µM. In addition, the TGI was found to be 32.9 µM in [7]; 31.6 µM in test [19]; 33.6 µM in test [8]; 39.7 µM in [9]; 32.1 µM in test [10]; 4.53 µM in test [11]. Also, the TGI came to 31.6 µM in test [13]; 31 µM in test [14]; 32.4 µM in test [15]; 25.8 µM in test [16]; 35.5 µM in test [17]; 49.4 µM in [18].
Turning to `C[C@@H](c1ccccc1)n1c(N)c(C#N)c2ccc([N+](=O)[O-])cc2c1=O`, the TGI in test [1] came out at 35.7 µM; in test [2] it was 33 µM; in [3], 31.3 µM; in test [4], 51.1 µM; in test [5], 22.5 µM; in [6], 39.3 µM. Moreover, the TGI in test [7] is 36 µM; in [9], 37 µM; in test [11] it was 33 µM; in test [12], 12.2 µM; in [15], 61 µM; in test [16], 24 µM. In addition, the TGI in test [17] stood at 48.3 µM; in test [18] it was 43 µM.
Consider `Clc1ccc(-c2cc3nc4ccccc4nc3o2)cc1`, for which the TGI in [1], in [2], in test [3], in test [4], in test [5] and in [6] was > 100 µM each time. Further, the TGI in test [7], in test [8], in [9], in test [10], in test [11] and in test [12] was > 100 µM in each case. Further, the TGI in test [13], in test [14], in [15], in test [16], in [17] and in test [18] was > 100 µM in each case.
